Test results: patent US20200061026A1, “METHODS AND COMPOSITIONS FOR PREVENTING VECTOR-BORNE DISEASE TRANSMISSION” (The Scripps Research Institute, priority 2016, published 2020)
pIC50: −log10 of the molar value. Where “and” joins values, the source holds several entries; their conditions need not be identical. Equal values may be shown once. Read-outs that look alike come from different tables or passages of the source.

How the values were obtained:
[1] = test system: Anopheles gambiae (Kisumu); assay: Membrane feeding, Anopheles gambiae Kisumu strain; format: in vivo; conditions: read-out: IC50 [95% CI]
Description: Mosquito colonies utilized in the examples were generally maintained as described: The colony of Anopheles stephensi (Sind-Kasur Nijmegen strain) was maintained at the Radboud University Medical Center, Nijmegen, The Netherlands, by 30° C. and 70-80% humidity and on a 12/12 hour day/night cycle. The Anopheles gambiae strains Kisumu and Tiassalé and the Aedes aegypti strains New Orleans and Cayman were reared at the Liverpool Insect Testing Establishment, Liverpool, UK. Kisumu is an insecticide susceptible lab strain. New Orleans was originally colonized by the Centers for Disease Control and Prevention. […]
Isoxazoline compounds fluralaner or afoxolaner were reconstituted in 50% human serum and 50% red blood cells and administered to adult Anopheles stephensi mosquitos via standard membrane feeding. Lethality was assessed 1, 2 or 8 days after exposure. […] The IC50 values of each compound for Anopheles death were determined by logistic regression using a least squares method to find the best fit and are shown in Table 1. IC50 values were calculated by applying a four-parameter logistic regression model using a least-squares method to find the best fit using the Graphpad Prism 5.0 software package. […]

[2] = test system: Brugia pahangi; assay: Brugia pahangi microfilariae viability (Cell-Titer Glo); format: in vivo
Description: Microfilariae of Brugia pahangi were kept in 75 cm^2 flasks in RPMI-1640 with fetal bovine serum as described previously (Plos Negl. Trop. Dis. 2012, e1494). To test viability, 384-well plates were filled with 250 microfilariae per well. Serial dilutions of isoxazolines, ivermectin, moxidectin and equivalent vehicle concentration (0.5% DMSO) were added to the wells. Seventy two hours after treatment, viability was assessed with the Cell-Titer Glo reagent (Promega). FIG. 13A represents a plot of viable Brugia pahangi versus fluralaner, afoxolaner, or control compound (moxidectin and ivermectin) concentration as assessed at 24 hours. FIG. 13B represents a plot of viable Brugia pahangi versus fluralaner, afoxolaner, or control compound (moxidectin and ivermectin) concentration as assessed at 48 hours. FIG. 13C represents a plot of viable Brugia pahangi versus fluralaner, afoxolaner, or control compound (moxidectin and ivermectin) concentration as assessed at 72 hours.

[3] = test system: Aedes aegypti (New Orleans); assay: Membrane feeding, Aedes aegypti New Orleans strain; format: in vivo; conditions: read-out: IC50 [95% CI]
[4] = Further in vitro degradation assay, rat primary hepatocytes
Description: (§1) In a further assay, isoxazolines (fluralaner and afoxolaner) and control compounds (7-Ethoxycoumarin and 7-Hydroxycoumarin [Sigma]) were dissolved in DMSO at 10 and 30 mM respectively, then diluted first 20-fold with 45% methanol in water and a further 10-fold in pre-warmed Williams' Medium E. Cryopreserved human, dog and rat hepatocytes (In Vitro Technologies) were thawed, isolated by percoll gradient and suspended in Williams' Medium E. Cells were then dispensed into the wells of 96-well plates containing 10 μL of diluted compounds, to reach a final concentration of 0.5×10^6 cells/mL and 1 μM of isoxazolines or 3 μM of control. After an incubation at 37° C. of 0, 15, 30, 60 or 90 minutes, the reaction was stopped with acetonitrile. The samples were then shaken for 10 minutes at 500 rpm and centrifuged at 3220 g for 20 minutes. Supernatants were transferred and stored at 4° C. until LC-MS-MS analysis.

[5] = test system: Anopheles stephensi; assay: Standard membrane feeding assay, Anopheles stephensi; format: in vivo; conditions: for pIC50: Anopheles stephensi; for killing of mosquitos (in words): lethality 1, 2 or 8 days after exposure; for whole blood IC99: mosquitocidal
Description: Mosquito colonies utilized in the examples were generally maintained as described: The colony of Anopheles stephensi (Sind-Kasur Nijmegen strain) was maintained at the Radboud University Medical Center, Nijmegen, The Netherlands, by 30° C. and 70-80% humidity and on a 12/12 hour day/night cycle. The Anopheles gambiae strains Kisumu and Tiassalé and the Aedes aegypti strains New Orleans and Cayman were reared at the Liverpool Insect Testing Establishment, Liverpool, UK. Kisumu is an insecticide susceptible lab strain. New Orleans was originally colonized by the Centers for Disease Control and Prevention. The Tiassalé strain was colonized from Southern Cote D'Ivoire where resistance to all classes of insecticide is found and the Cayman strain was colonized from Grand Cayman, where Aedes aegypti are highly resistant to DDT and pyrethroid insecticides. Both resistant strains are routinely selected with insecticides to ensure the maintenance of resistance, 0.75% permethrin for Cayman and 0.05% deltamethrin for Tiassalé, and profiled for resistance to a range of insecticides, including 4% dieldrin, to which Tiassalé is resistant but Cayman is susceptible.
Isoxazoline compounds fluralaner or afoxolaner were reconstituted in 50% human serum and 50% red blood cells and administered to adult Anopheles stephensi mosquitos via standard membrane feeding. Lethality was assessed 1, 2 or 8 days after exposure. FIG. 2A represents a plot of viable Anopheles stephensi versus fluralaner concentration at each day of assessment. FIG. 2B represents a plot of viable Anopheles stephensi versus afoxolaner concentration at each day of assessment. […] The IC50 values of each compound for Anopheles death were determined by logistic regression using a least squares method to find the best fit and are shown in Table 1. IC50 values were calculated by applying a four-parameter logistic regression model using a least-squares method to find the best fit using the Graphpad Prism 5.0 software package.
FIG. 2C represents a plot of viable Anopheles stephensi versus fluralaner concentration at each time of assessment. FIG. 2D represents a plot of viable Anopheles stephensi versus afoxolaner concentration at each time of assessment. FIG. 2E represents plots of viable Anopheles stephensi versus concentration of (S)- and (R)-enantiomers of afoxolaner at each time of assessment. […] The IC50 (M) concentrations are also shown for FIGS. 2C and 2D.

[6] = cited from earlier work
[7] = Further in vitro degradation assay, human primary hepatocytes; conditions: for half-life / hepatocyte CLint: human; for metabolization when incubated with human hepatocytes: in words
Description: as §1

[8] = test system: Lutzomyia longipalpis; assay: Membrane feeding, sand fly Lutzomyia longipalpis; conditions: in vivo
From the text: (§2) Isoxazoline compounds fluralaner or afoxolaner were reconstituted in 50% human serum and 50% red blood cells and administered to sand flies Lutzomyia longipalpis and Phlebotomus argentipes via standard membrane feeding. These san fly species are vectors for visceral leishmaniasis. FIG. 12A represents a plot of viable Lutzomyia longipalpis versus fluralaner concentration at various times of assessment. FIG. 12B represents a plot of viable Lutzomyia longipalpis versus afoxolaner concentration at various times of assessment. FIG. 12C represents a plot of viable Phlebotomus argentipes versus fluralaner concentration at various times of assessment. FIG. 12D represents a plot of viable Phlebotomus argentipes versus afoxolaner concentration at various times of assessment. […] The EC50 values of each compound for sand fly death were determined by logistic regression using a least squares method to find the best fit and are shown in the figures.

[9] = test system: Phlebotomus argentipes; assay: Membrane feeding, sand fly Phlebotomus argentipes; conditions: in vivo
From the text: as §2

[10] = Dog pharmacokinetics (published values); cited from earlier work

Question: With Cc1cc(C2=NO[C@](c3cc(Cl)cc(Cl)c3)(C(F)(F)F)C2)ccc1C(=O)NCC(=O)NCC(F)(F)F [Fluralaner, fluralaner] as the compound, how does the pIC50 ([1]; 24 hours after the blood meal, Kisumu strain) read?
Answer: 7.48

Question: And the “killing of Brugia pahangi (in words)” value [2]?
Answer: effective in killing Brugia pahangi

Question: And the pIC50 ([3]; 24 hours after the blood meal, New Orleans strain)?
Answer: 7.47

Question: What about the half-life ([4]; cryopreserved hepatocytes) of the same compound?
Answer: > 217 min

Question: And the hepatocyte CLint ([4]; cryopreserved hepatocytes)?
Answer: < 6.4 µL/min/1e6 cells

Question: What about the pIC50 ([5]; 24 h, 1 day after exposure, read-out: IC50 (Anopheles death)) of the same compound?
Answer: 7.27

Question: What about the pIC50 ([5]; 48 h, 2 days after exposure, read-out: IC50 (Anopheles death)) of the same compound?
Answer: 7.38

Question: And the pIC50 ([5]; 192 h, 8 days after exposure, read-out: IC50 (Anopheles death))?
Answer: 7.43

Question: And the pIC50 ([5]; 24 hours after the blood meal, read-out: IC50 [95% CI])?
Answer: 7.25

Question: What about the “killing of mosquitos (in words)” value [5] of the same compound?
Answer: effective at killing the mosquitos in a dose-dependent manner

Question: And the “whole blood IC99” value [5]?
Answer: 119 nM and 66 ng/mL

Question: What about the “embryo-fetal development in rats” value [6] of the same compound?
Answer: unaffected

Question: And the half-life ([7]; cryopreserved hepatocytes)?
Answer: > 217 min

Question: And the hepatocyte CLint ([7]; cryopreserved hepatocytes)?
Answer: < 6.4 µL/min/1e6 cells

Question: And the “metabolization when incubated with human hepatocytes” value [7]?
Answer: Neither fluralaner nor afoxolaner showed measurable metabolization

Question: What about the “killing of sand flies (in words)” value [8] of the same compound?
Answer: effective at killing the sand flies in a dose-dependent manner

Question: And the “killing of sand flies (in words)” value [9]?
Answer: effective at killing the sand flies in a dose-dependent manner

Question: And the “CL (plasma clearance)” value [10]?
Answer: 5.83 mL/h/kg

Question: What about the Oral bioavailability [10] of the same compound?
Answer: 11-34%

Question: What about the “V (volume of distribution)” value [10] of the same compound?
Answer: 3.1 L/kg

Question: What about the half-life [10] of the same compound?
Answer: 15.0 days

Question: With O=C(CNC(=O)c1ccc(C2=NO[C@](c3cc(Cl)cc(C(F)(F)F)c3)(C(F)(F)F)C2)c2ccccc12)NCC(F)(F)F (racemic) [Afoxolaner, afoxolaner] as the compound, how does the pIC50 ([1]; 24 h) read?
Answer: 6.99

Question: And the “killing of Brugia pahangi (in words)” value [2]?
Answer: effective in killing Brugia pahangi

Question: And the pIC50 ([3]; 24 h)?
Answer: 7.00

Question: And the half-life ([4]; hepatocytes)?
Answer: > 217 min

Question: And the hepatocyte CLint ([4]; hepatocytes)?
Answer: < 6.4 µL/min/1e6 cells

Question: What about the pIC50 ([5]; 24 h, read-out: IC50 (Anopheles death)) of the same compound?
Answer: 6.97

Question: What about the pIC50 ([5]; 24 h, read-out: IC50 [95% CI]) of the same compound?
Answer: 6.97

Question: And the pIC50 ([5]; 48 h, read-out: IC50 (Anopheles death))?
Answer: 7.47

Question: What about the pIC50 ([5]; 192 h, read-out: IC50 (Anopheles death)) of the same compound?
Answer: 7.85

Question: And the “killing of mosquitos (in words)” value [5]?
Answer: effective at killing the mosquitos in a dose-dependent manner

Question: And the “whole blood IC99” value [5]?
Answer: 233 nM and 146 ng/mL

Question: And the “embryo-fetal development in rats” value [6]?
Answer: unaffected

Question: And the half-life ([7]; hepatocytes)?
Answer: > 217 min

Question: What about the hepatocyte CLint ([7]; hepatocytes) of the same compound?
Answer: < 6.4 µL/min/1e6 cells

Question: What about the “metabolization when incubated with human hepatocytes” value [7] of the same compound?
Answer: Neither fluralaner nor afoxolaner showed measurable metabolization

Question: What about the “killing of sand flies (in words)” value [8] of the same compound?
Answer: effective at killing the sand flies in a dose-dependent manner

Question: And the “killing of sand flies (in words)” value [9]?
Answer: effective at killing the sand flies in a dose-dependent manner

Question: And the “CL (plasma clearance)” value [10]?
Answer: 4.95 mL/h/kg

Question: And the Oral bioavailability [10]?
Answer: 74%

Question: And the “V (volume of distribution)” value [10]?
Answer: 2.68 L/kg

Question: What about the half-life [10] of the same compound?
Answer: 15.5 days
